Source: patent US5776886A, “Intravaginal preparation containing physiologically active peptide” (Teikoku Seiyaku Kabushiki Kaisha, priority 1993, dated 1998)

Assays:
Type in all cases: in vivo, Wistar rats
[1] = tested on: calcium level in the serum; assay: Experiment 3: effects of various sucrose fatty acid esters on serum calcium reduction; details: for Reduction rate (%) of calcium level in the serum: rats
Method: (§1) An intravaginal suppository was administered into the rat's vagina, and the blood was collected periodically (2, 4 and 6 hours after administration of the test preparation).
(§2) The serum was separated, and the calcium level in the serum was determined by using a kit for determination of calcium (Calcium C Test Wako; manufactured by Wako Pure Chemical Industries, Ltd.) (n=3).
In the same manner, there were prepared various sucrose fatty acid esters having the same HLB value but being combined with a different fatty acid (Table B), and four kinds of intravaginal suppositories for rats were prepared by using each 100 mg of sucrose fatty acid ester.
In the same manner as in Experiment 1, each intravaginal suppository was administered to the rat's vagina, and the blood was collected periodically 2, 4 and 6 hours after administration of intravaginal suppository), and the calcium level in the serum thereof was determined (n=4).

[2] = tested on: calcium level in the serum; assay: Experiment 5: sucrose fatty acid ester with various organic acids, serum calcium reduction; details: for Reduction rate (%) of calcium level in the serum: intravaginal suppository 20 μg, rats
Method: as §1, §2
In the same manner as in Experiment 1, each intravaginal suppository was administered to the rat's vagina, and the blood was collected periodically (2, 4 and 6 hours after administration of intravaginal suppository), and the calcium level in the serum thereof was determined (n=5).

[3] = tested on: calcium level in the serum; assay: Experiment 7: effects of pH of the solution in the suppository on serum calcium reduction
Method: as §1, §2
In the same manner as in Experiment 1, each intravaginal suppository was administered to the rat's vagina, and the blood was collected periodically (2, 4 and 6 hours after administration of intravaginal suppository), and the calcium level in the serum thereof was determined (n=3).

Substance: Human calcitonin
- Reduction rate (%) of calcium level in the serum ([1]; Ryoto-Sugar Ester (L-1695), HLB 16, lauric acid, + citric acid, intravaginal suppository 20 μg, 2 hr): 12.8%
- Reduction rate (%) of calcium level in the serum ([1]; Ryoto-Sugar Ester (L-1695), HLB 16, lauric acid, + citric acid, intravaginal suppository 20 μg, 4 hr): 13.4%
- Reduction rate (%) of calcium level in the serum ([1]; Ryoto-Sugar Ester (L-1695), HLB 16, lauric acid, + citric acid, intravaginal suppository 20 μg, 6 hr): 11.4%
- Reduction rate (%) of calcium level in the serum ([1]; Ryoto-Sugar Ester (S-370), HLB 3, stearic acid, + citric acid, intravaginal suppository 20 μg, 2 hr): 13.4%
- Reduction rate (%) of calcium level in the serum ([1]; Ryoto-Sugar Ester (S-370), HLB 3, stearic acid, + citric acid, intravaginal suppository 20 μg, 4 hr): 18.2%
- Reduction rate (%) of calcium level in the serum ([1]; Ryoto-Sugar Ester (S-370), HLB 3, stearic acid, + citric acid, intravaginal suppository 20 μg, 6 hr): 11.4%
- Reduction rate (%) of calcium level in the serum ([1]; Ryoto-Sugar Ester (S-570), HLB 5, stearic acid, + citric acid, intravaginal suppository 20 μg, 2 hr): 12.8%
- Reduction rate (%) of calcium level in the serum ([1]; Ryoto-Sugar Ester (S-570), HLB 5, stearic acid, + citric acid, intravaginal suppository 20 μg, 4 hr): 17.2%
- Reduction rate (%) of calcium level in the serum ([1]; Ryoto-Sugar Ester (S-570), HLB 5, stearic acid, + citric acid, intravaginal suppository 20 μg, 6 hr): 12.0%
- Reduction rate (%) of calcium level in the serum ([1]; Ryoto-Sugar Ester (S-770), HLB 7, stearic acid, + citric acid, intravaginal suppository 20 μg, 2 hr): 13.6%
- Reduction rate (%) of calcium level in the serum ([1]; Ryoto-Sugar Ester (S-770), HLB 7, stearic acid, + citric acid, intravaginal suppository 20 μg, 4 hr): 14.8%
- Reduction rate (%) of calcium level in the serum ([1]; Ryoto-Sugar Ester (S-770), HLB 7, stearic acid, + citric acid, intravaginal suppository 20 μg, 6 hr): 11.8%
- Reduction rate (%) of calcium level in the serum ([1]; Ryoto-Sugar Ester (S-970), HLB 9, stearic acid, + citric acid (Table 3), intravaginal suppository 20 μg, 2 hr): 12.2%
- Reduction rate (%) of calcium level in the serum ([1]; Ryoto-Sugar Ester (S-970), HLB 9, stearic acid, + citric acid (Table 3), intravaginal suppository 20 μg, 4 hr): 17.4%
- Reduction rate (%) of calcium level in the serum ([1]; Ryoto-Sugar Ester (S-970), HLB 9, stearic acid, + citric acid (Table 3), intravaginal suppository 20 μg, 6 hr): 11.8%
- Reduction rate (%) of calcium level in the serum ([1]; Ryoto-Sugar Ester (S-1670), HLB 16, stearic acid, + citric acid, intravaginal suppository 20 μg, 2 hr): 11.4%
- Reduction rate (%) of calcium level in the serum ([1]; Ryoto-Sugar Ester (S-1670), HLB 16, stearic acid, + citric acid, intravaginal suppository 20 μg, 4 hr): 16.4%
- Reduction rate (%) of calcium level in the serum ([1]; Ryoto-Sugar Ester (S-1670), HLB 16, stearic acid, + citric acid, intravaginal suppository 20 μg, 6 hr): 12.6%
- Reduction rate (%) of calcium level in the serum ([1]; Ryoto-Sugar Ester L-595 + L-1695 3:2, HLB 9, lauric acid, + citric acid, intravaginal suppository, 2 hr): 11.0%
- Reduction rate (%) of calcium level in the serum ([1]; Ryoto-Sugar Ester L-595 + L-1695 3:2, HLB 9, lauric acid, + citric acid, intravaginal suppository, 4 hr): 14.4%
- Reduction rate (%) of calcium level in the serum ([1]; Ryoto-Sugar Ester L-595 + L-1695 3:2, HLB 9, lauric acid, + citric acid, intravaginal suppository, 6 hr): 9.7%
- Reduction rate (%) of calcium level in the serum ([1]; Ryoto-Sugar Ester P-070 + P-1670 4:5, HLB 9, palmitic acid, + citric acid, intravaginal suppository, 2 hr): 8.2%
- Reduction rate (%) of calcium level in the serum ([1]; Ryoto-Sugar Ester P-070 + P-1670 4:5, HLB 9, palmitic acid, + citric acid, intravaginal suppository, 4 hr): 17.3%
- Reduction rate (%) of calcium level in the serum ([1]; Ryoto-Sugar Ester P-070 + P-1670 4:5, HLB 9, palmitic acid, + citric acid, intravaginal suppository, 6 hr): 13.8%
- Reduction rate (%) of calcium level in the serum ([1]; Ryoto-Sugar Ester S-370 + S-1670 5:6, HLB 9, stearic acid, + citric acid, intravaginal suppository, 2 hr): 6.9%
- Reduction rate (%) of calcium level in the serum ([1]; Ryoto-Sugar Ester S-370 + S-1670 5:6, HLB 9, stearic acid, + citric acid, intravaginal suppository, 4 hr): 15.3%
- Reduction rate (%) of calcium level in the serum ([1]; Ryoto-Sugar Ester S-370 + S-1670 5:6, HLB 9, stearic acid, + citric acid, intravaginal suppository, 6 hr): 12.3%
- Reduction rate (%) of calcium level in the serum ([1]; Ryoto-Sugar Ester S-970 1:0 (control of Table B), HLB 9, stearic acid, + citric acid (Table 4), intravaginal suppository, 2 hr): 6.3%
- Reduction rate (%) of calcium level in the serum ([1]; Ryoto-Sugar Ester S-970 1:0 (control of Table B), HLB 9, stearic acid, + citric acid (Table 4), intravaginal suppository, 4 hr): 11.6%
- Reduction rate (%) of calcium level in the serum ([1]; Ryoto-Sugar Ester S-970 1:0 (control of Table B), HLB 9, stearic acid, + citric acid (Table 4), intravaginal suppository, 6 hr): 11.0%
- promotion effects on absorption of calcitonin ([1]; combination of sucrose fatty acid ester and citric acid, esters of different HLB value and fatty acid): not affected by either the HLB value of the sucrose fatty acid ester to be used or by the kinds of the fatty acids to be combined
- Reduction rate (%) of calcium level in the serum ([2]; organic acid: citric acid (pH 4) + Ryoto-Sugar Ester R-970, 2 hr): 11.4%
- Reduction rate (%) of calcium level in the serum ([2]; organic acid: citric acid (pH 4) + Ryoto-Sugar Ester R-970, 4 hr): 19.6%
- Reduction rate (%) of calcium level in the serum ([2]; organic acid: citric acid (pH 4) + Ryoto-Sugar Ester R-970, 6 hr): 8.4%
- Reduction rate (%) of calcium level in the serum ([2]; organic acid: lactic acid (pH 4) + Ryoto-Sugar Ester R-970, 2 hr): 17.0%
- Reduction rate (%) of calcium level in the serum ([2]; organic acid: lactic acid (pH 4) + Ryoto-Sugar Ester R-970, 4 hr): 10.6%
- Reduction rate (%) of calcium level in the serum ([2]; organic acid: lactic acid (pH 4) + Ryoto-Sugar Ester R-970, 6 hr): 5.4%
- Reduction rate (%) of calcium level in the serum ([2]; organic acid: malic acid (pH 4) + Ryoto-Sugar Ester R-970, 2 hr): 18.6%
- Reduction rate (%) of calcium level in the serum ([2]; organic acid: malic acid (pH 4) + Ryoto-Sugar Ester R-970, 4 hr): 13.0%
- Reduction rate (%) of calcium level in the serum ([2]; organic acid: malic acid (pH 4) + Ryoto-Sugar Ester R-970, 6 hr): 7.0%
- Reduction rate (%) of calcium level in the serum ([2]; organic acid: tartaric acid (pH 4) + Ryoto-Sugar Ester R-970, 2 hr): 12.2%
- Reduction rate (%) of calcium level in the serum ([2]; organic acid: tartaric acid (pH 4) + Ryoto-Sugar Ester R-970, 4 hr): 8.0%
- Reduction rate (%) of calcium level in the serum ([2]; organic acid: tartaric acid (pH 4) + Ryoto-Sugar Ester R-970, 6 hr): 3.4%
- calcium level ([2]; sucrose fatty acid ester with citric, tartaric, lactic or malic acid): significantly reduced regardless of any organic acid to be used
- promotion effect of a combination of a sucrose fatty acid ester and citric acid ([3]; pH of the solution 3.0 to 5.5): observed in the cases of pH 3.0 to 5.5, and the effects thereof were not significantly different in the cases of pH 3.0 to 4.5
- Reduction rate (%) of calcium level in the serum ([3]; pH of the solution in suppository 3.0, citric acid + S-970, intravaginal 20 μg, rats, 2 hr): 11.0%
